Measurements as given in patent US20220009918A1, “Chemical Compounds” (GlaxoSmithKline Intellectual Property Development Limited, priority 2018, published 2022).

What follows are compounds tested against T1, human H-PGDS (Homo sapiens, UniProt O60760) (assay: H-PGDS RapidFire high throughput mass spectrometry assay). Settings: inhibition of conversion of PGH2 to PGD2 by H-PGDS; mean pIC50; read-out: Potency Range (mean pIC50) (converted).
T1 construct: Full length human H-PGDS cDNA (Invitrogen Ultimate ORF IOH13026) was amplified by PCR; 6-His (N); TEV protease cleavage site (N); made in house; host or cells: E. coli BL21 (DE3*) for H-PGDS; Sf9 insect cells (baculovirus) for COX-2
Assay type: biochemical
Procedure: H-PGDS RapidFire™ High Throughput Mass Spectrometry Assay
The H-PGDS RapidFire™ mass spectrometric assay monitors conversion of prostaglandin H2 (PGH2) to prostaglandin D2 (PGD2) by haematopoietic prostaglandin D synthase (H-PGDS). In the assay format described here, the substrate (PGH2) is formed in situ by the action of cyclooxygenase-2 on arachidonic acid. This first step is set up to be fast, and generates a burst of PGH2 at ˜10 μM. The PGH2 is then further converted to PGD2 by the H-PGDS enzyme. […] Plates are then read on the RapidFire™ high throughput solid phase extraction system (Agilent) which incorporates a solid phase extraction step coupled to a triple quadrupole mass spectrometer (AB SCIEX). Relative levels of PGD2 and PGF2α, which acts as a surrogate for substrate, are measured and a percent conversion calculated. Inhibitors are characterised as compounds which lower the conversion of PGH2 to PGD2.
Full length human H-PGDS cDNA (Invitrogen Ultimate ORF IOH13026) was amplified by PCR with the addition of a 5′ 6-His tag and TEV protease cleavage site. The PCR product was digested with NdeI and XhoI and ligated into pET22b+ (Merck Novagen®). Expression was carried out in E. coli strain BL21 (DE3*) using auto-induction Overnight Express™ Instant TB medium (Merck Novagen®) supplemented with 1% glycerol. The culture was first grown at 37° C. and the temperature was reduced to 25° C. when OD600 reached 2.0. Cells were harvested by centrifugation after a further 18 hours. 10 g of E. coli cell pellet was suspended to a total volume of 80 mL in lysis buffer (20 mM Tris-Cl pH 7.5, 300 mM NaCl, 20 mM imidazole, 5 mM p-mercaptoethanol, 10% glycerol). 1 mg/mL protease inhibitors (Protease Inhibitor Cocktail Set III, Merck Calbiochem®) and 1 mg/mL lysozyme were added to the cell suspension. The suspension was then sonicated for 5 min (UltraSonic Processor VCX 750, Cole-Parmer Instrument Co.) with a micro probe (50% amplitude, 10 sec on/off) and then centrifuged at 100,000 g for 90 minutes (at 4° C.). The supernatant was loaded onto a Ni-NTA HiTrap column (5 mL, GE Healthcare, pre-equilibrated in lysis buffer). The column was washed with 10 column volumes of lysis buffer and eluted with lysis buffer containing 500 mM imidazole. The pooled protein peak fractions were concentrated using a 10 kDa centrifugal filter at 3500 g and 4° C. (Amicon Ultra-15 centrifugal filter unit with Ultracel-10 membrane from Millipore). Further purification of the concentrated protein was carried out using gel filtration chromatography on a HiLoad 26/600 Superdex 75 preparative grade column (GE Healthcare Life Sciences) using 50 mM Tris pH 7.5, 50 mM NaCl, 1 mM dithiothreitol, 1 mM MgCl2. Fractions containing the protein were pooled, concentrated as described above, and stored at −80° C.
The full length human COX-2 gene (accession number L15326) was amplified by PCR to generate an EcoRI—HindIII fragment containing an in-frame FLAG tag. This was subcloned into pFastBac 1 (Invitrogen). The COX-2 FLAG plasmid was recombined into the baculovirus genome according to the BAC-to-BAC protocol described by Invitrogen. Transfection into Spodoptera frugiperda (Sf9) insect cells was performed using Cellfectin (Invitrogen), according to the manufacturer's protocol. Super Sf9 cells were cultured in EX420 media (SAFC Biosciences) to a density of approximately 1.5×10^6 cells/mL within a wave bioreactor. Recombinant virus was added at a Multiplicity of Infection (MOI) of 5 and the culture was allowed to continue for 3 days. Cells were harvested using a continuous feed centrifuge run at 2500 g at a rate of approximately 2 L/min with cooling. The resultant cell slurry was re-centrifuged in pots (2500 g, 20 min, 4° C.) and the cell paste was stored at −80° C. […]

T1 sequence (O60760 whole entry): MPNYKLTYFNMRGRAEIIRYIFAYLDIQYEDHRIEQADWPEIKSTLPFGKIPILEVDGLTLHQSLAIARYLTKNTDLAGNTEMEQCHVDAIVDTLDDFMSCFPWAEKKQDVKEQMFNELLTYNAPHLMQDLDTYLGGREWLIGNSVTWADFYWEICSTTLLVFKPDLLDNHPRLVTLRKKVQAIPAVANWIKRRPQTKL

SMILES | IC50 [nM]
COc1ccc(CN2CCC(C)(NC(=O)c3cnc(-c4cc(F)cc(Cl)c4)s3)C2=O)cc1 (racemic) [Example 70, Racemic 2-(3-Chloro-5-fluorophenyl)-N-(1-(4-methoxybenzyl)-3-methyl-2-oxopyrrolidin-3-yl)thiazole-5-carboxamide] | 102 to 1000
O=C(N[C@H]1CC2(CC2)NC1=O)c1cnc(-c2cc(F)cc(Cl)c2)s1 [Example 21, (S)-2-(3-Chloro-5-fluorophenyl)-N-(5-oxo-4-azaspiro[2.4]heptan-6-yl)thiazole-5-carboxamide] | 1.02 to 10
O=C(N[C@H]1C(=O)N[C@@H]2CCC[C@@H]21)c1cnc(-c2cc(F)cc(Cl)c2)s1 [Example 50, 2-(3-Chloro-5-fluorophenyl)-N-((3R,3aS,6aR)-2-oxooctahydrocyclopenta[b]pyrrol-3-yl)thiazole-5-carboxamide] | 102 to 1000
CC1(C)CC(NC(=O)c2cnc(-c3cc(F)cc(Cl)c3)s2)C(=O)N1 (racemic) [Example 14, Racemic 2-(3-Chloro-5-fluorophenyl)-N-(5,5-dimethyl-2-oxopyrrolidin-3-yl)thiazole-5-carboxamide] | 10.2 to 100
O=C(N[C@@H]1C(=O)N[C@H]2COC[C@H]21)c1cnc(-c2cc(F)cc(Cl)c2)s1 (racemic) [Example 52, Racemic 2-(3-Chloro-5-fluorophenyl)-N-((3S,3aR,6aR)-2-oxohexahydro-1H-furo[3,4-b]pyrrol-3-yl)thiazole-5-carboxamide; and 2-(3-Chloro-5-fluorophenyl)-N-((3R,3aS,6aS)-2-oxohexahydro-1H-furo[3,4-b]pyrrol-3-yl)thiazole-5-carboxamide] | 10.2 to 100
O=C(N[C@H]1CCNC1=O)c1cnc(-c2cccc(Cl)c2)s1 [Example 3, (S)-2-(3-Chlorophenyl)-N-(2-oxopyrrolidin-3-yl)thiazole-5-carboxamide] | 10.2 to 100
O=C(N[C@@H]1CC2(COC2)NC1=O)c1cnc(-c2cc(F)cc(Cl)c2)s1 [Example 56, (R)-2-(3-Chloro-5-fluorophenyl)-N-(6-oxo-2-oxa-5-azaspiro[3.4]octan-7-yl)thiazole-5-carboxamide] | 102 to 1000
O=C(N[C@H]1CCNC1=O)c1cnc(-c2cc(Cl)ccc2F)s1 [Example 7, (S)-2-(5-Chloro-2-fluorophenyl)-N-(2-oxopyrrolidin-3-yl)thiazole-5-carboxamide] | 10.2 to 100
CC1(C)C[C@@H](NC(=O)c2cnc(-c3cc(F)cc(Cl)c3)s2)C(=S)N1 [Example 84, (R)-2-(3-Chloro-5-fluorophenyl)-N-(5,5-dimethyl-2-thioxopyrrolidin-3-yl)thiazole-5-carboxamide] | 102 to 1000
Cc1ccc(-c2ncc(C(=O)N[C@H]3CCNC3=O)s2)cc1 [Example 44, (S)-N-(2-Oxopyrrolidin-3-yl)-2-(p-tolyl)thiazole-5-carboxamide] | 1020 to 10000
CN(C(=O)c1cnc(-c2cc(F)cc(Cl)c2)s1)[C@H]1CCNC1=O [Example 66, (S)-2-(3-Chloro-5-fluorophenyl)-N-methyl-N-(2-oxopyrrolidin-3-yl)thiazole-5-carboxamide] | 1020 to 10000
CCC1(CC)CNC(=O)[C@@H]1NC(=O)c1cnc(-c2cc(F)cc(Cl)c2)s1 [Example 24, (R)-2-(3-Chloro-5-fluorophenyl)-N-(4,4-diethyl-2-oxopyrrolidin-3-yl)thiazole-5-carboxamide] | 1020 to 10000
C[C@H]1C[C@H](NC(=O)c2cnc(-c3cc(F)cc(Cl)c3)s2)C(=O)N1 [Example 81, 2-(3-Chloro-5-fluorophenyl)-N-((3S,5S)-5-methyl-2-oxopyrrolidin-3-yl)thiazole-5-carboxamide] | 1.02 to 10
CC1(C)CNC(=O)[C@H]1NC(=O)c1cnc(-c2cc(F)cc(Cl)c2)s1 [Example 19, (S)-2-(3-Chloro-5-fluorophenyl)-N-(4,4-dimethyl-2-oxopyrrolidin-3-yl)thiazole-5-carboxamide] | 10.2 to 100
O=C(N[C@H]1CCNC1=O)c1cnc(-c2cccc(F)c2)s1 [Example 45, (S)-2-(3-Fluorophenyl)-N-(2-oxopyrrolidin-3-yl)thiazole-5-carboxamide] | 10.2 to 100
CCC1(CC)CNC(=O)C1NC(=O)c1cnc(-c2cc(F)cc(Cl)c2)s1 (racemic) [Example 23, Racemic 2-(3-Chloro-5-fluorophenyl)-N-(4,4-diethyl-2-oxopyrrolidin-3-yl)thiazole-5-carboxamide] | 102 to 1000
C[C@@]1(NC(=O)c2cnc(-c3cc(F)cc(Cl)c3)s2)CCNC1=O [Example 73, (R)-2-(3-Chloro-5-fluorophenyl)-N-(3-methyl-2-oxopyrrolidin-3-yl)thiazole-5-carboxamide] | 102 to 1000
O=C(N[C@H]1CCNC1=S)c1cnc(-c2cc(F)cc(Cl)c2)s1 [Example 77, (S)-2-(3-Chloro-5-fluorophenyl)-N-(2-thioxopyrrolidin-3-yl)thiazole-5-carboxamide] | 1.02 to 10
C[C@@H]1C[C@@H](NC(=O)c2cnc(-c3cc(F)cc(Cl)c3)s2)C(=O)N1 [Example 61, 2-(3-Chloro-5-fluorophenyl)-N-((3R,5R)-5-methyl-2-oxopyrrolidin-3-yl)thiazole-5-carboxamide] | 102 to 1000
C[C@@H]1C[C@H](NC(=O)c2cnc(-c3cc(F)cc(Cl)c3)s2)C(=O)N1 [Example 62, 2-(3-Chloro-5-fluorophenyl)-N-((3S,5R)-5-methyl-2-oxopyrrolidin-3-yl)thiazole-5-carboxamide] | 10.2 to 100
O=C(N[C@@H]1C(=O)N[C@H]2COC[C@H]21)c1cnc(-c2cc(F)cc(Cl)c2)s1 [Example 53, 2-(3-Chloro-5-fluorophenyl)-N-((3S,3aR,6aR)-2-oxohexahydro-1H-furo[3,4-b]pyrrol-3-yl)thiazole-5-carboxamide] | 10.2 to 100
Cc1cc(-c2ncc(C(=O)N[C@H]3CCNC3=O)s2)cc(C(F)F)c1 [Example 48, (S)-2-(3-(Difluoromethyl)-5-methylphenyl)-N-(2-oxopyrrolidin-3-yl)thiazole-5-carboxamide] | 10.2 to 100
O=C(NC1CC2(COC2)NC1=O)c1cnc(-c2cc(F)cc(Cl)c2)s1 (racemic) [Example 55, Racemic 2-(3-Chloro-5-fluorophenyl)-N-(6-oxo-2-oxa-5-azaspiro[3.4]octan-7-yl)thiazole-5-carboxamide] | 1.02 to 10
O=C(N[C@H]1CCNC1=O)c1cnc(-c2cccnc2)s1 [Example 40, (S)-N-(2-Oxopyrrolidin-3-yl)-2-(pyridin-3-yl)thiazole-5-carboxamide] | 102 to 1000
O=C(N[C@H]1CCNC1=O)c1cnc(-c2cc(F)cc(C(F)F)c2)s1 [Example 12, (S)-2-(3-(Difluoromethyl)-5-fluorophenyl)-N-(2-oxopyrrolidin-3-yl)thiazole-5-carboxamide] | 1.02 to 10
CCC1(CC)CNC(=O)[C@H]1NC(=O)c1cnc(-c2cc(F)cc(Cl)c2)s1 [Example 25, (S)-2-(3-Chloro-5-fluorophenyl)-N-(4,4-diethyl-2-oxopyrrolidin-3-yl)thiazole-5-carboxamide] | 10.2 to 100
NC(=O)CN1CC[C@H](NC(=O)c2cnc(-c3cc(F)cc(F)c3)s2)C1=O [Example 17, (S)-N-(1-(2-Amino-2-oxoethyl)-2-oxopyrrolidin-3-yl)-2-(3,5-difluorophenyl)thiazole-5-carboxamide] | 102 to 1000
O=C(N[C@H]1CCNC1=O)c1cnc(-c2cc(F)cc(Cl)c2)s1 [Example 6, (S)-2-(3-Chloro-5-fluorophenyl)-N-(2-oxopyrrolidin-3-yl)thiazole-5-carboxamide] | 1.02 to 10
